Paper PMC9305358 (The Journal of Biological Chemistry, 2022)

Tests used:
FITC-casein = assay: fluorescence polarisation
ClpC1–Sa ClpP = type: biochemical, Mycobacterium tuberculosis ClpC1; Staphylococcus aureus ClpP
ClpC1-F444S–ClpP1P2 [1] = type: biochemical, Mycobacterium tuberculosis
ClpC1-E626A with Sa ClpP = type: biochemical, Mycobacterium tuberculosis ClpC1; Staphylococcus aureus ClpP
ClpC1-F444S [2] = type: biochemical, Mycobacterium tuberculosis
ClpC1-F444S [3] = type: biochemical, Mycobacterium tuberculosis; remark: listed apart in the source
ClpC1-E288A = type: biochemical, Mycobacterium tuberculosis
ClpC1-WT–ClpP1P2 [4] = type: biochemical, Mycobacterium tuberculosis
NMtb–ClpC = conditions: ref [26]; cited from earlier work
Sa ClpC = conditions: ref [26]; cited from earlier work
ClpC1-F444S and ClpP1P2 = type: biochemical, Mycobacterium tuberculosis
ClpC1-F444S–ClpP1P2 [5] = type: biochemical, Mycobacterium tuberculosis; remark: listed apart in the source
ClpC1-WT and ClpP1P2 = type: biochemical, Mycobacterium tuberculosis
ClpC1-WT–ClpP1P2 [6] = type: biochemical, Mycobacterium tuberculosis; conditions: pH 7.5
ClpC1-E626A = type: biochemical, Mycobacterium tuberculosis
ClpC1-WT–P1P2 = type: biochemical, Mycobacterium tuberculosis
ClpC1-E288A with Sa ClpP = type: biochemical, Mycobacterium tuberculosis ClpC1; Staphylococcus aureus ClpP
Mtb cells = conditions: ref [19], cited from earlier work
ClpC1-F444S–ClpP1P2 [7] = type: biochemical, Mycobacterium tuberculosis; remark: listed apart in the source

ATPase-deficient double Walker B variant ClpC1-E288A-E626A (from UniProt P9WPC9 1-848) (enzyme)
Kd (FITC-casein): 1 µM

CyclomarinA [CymA]
effect on FITC-casein degradation by ClpC1–Sa ClpP (ClpC1–Sa ClpP): comparable to those determined for ClpC1–ClpP1P2 complexes | effect of CymA on FITC-casein degradation by ClpC1-F444S–ClpP1P2 (ClpC1-F444S–ClpP1P2 [1]): further enhanced | effect on FITC-casein degradation (ClpC1-E626A with Sa ClpP): did not enhance FITC-casein degradation | change of mass profile (ClpC1-F444S [2]): No major changes in mass profiles | change of crosslink pattern / hexamer level (ClpC1-F444S [3]): remained the same | effect on ATP hydrolysis of ClpC1-E288A (ClpC1-E288A): stimulated ATP hydrolysis of ClpC1-E288A | inhibition of ClpC1-WT–ClpP1P2 activity (ClpC1-WT–ClpP1P2 [4]): did not observe strong inhibition | increase of basal FITC-casein degradation activity (ClpC1-WT–ClpP1P2 [4]; pH 7.5): fourfold | effect on ATPase and proteolytic activities of NMtb–ClpC (NMtb–ClpC): increases both ATPase and proteolytic activities | sensitivity of Sa ClpC WT with native NTD to CymA (Sa ClpC): insensitive | reduction of ClpS-dependent FR-L-GFP degradation activity of ClpC1-F444S by CymA (ClpC1-F444S and ClpP1P2): 2.3 fold | effect of CymA on GFP-SsrA degradation by ClpC1-F444S–ClpP1P2 (ClpC1-F444S–ClpP1P2 [5]): slightly reduced | enhancement of FR-L-GFP degradation rate by CymA (ClpC1-WT and ClpP1P2): 1.6 fold | enhancement of GFP-SsrA degradation (ClpC1-WT–ClpP1P2 [6]): 1.8 fold | effect on ATP hydrolysis of ClpC1-E626A (ClpC1-E626A): but not ClpC1-E626A | effect on VapB15 degradation (ClpC1-WT–P1P2): minor inhibition | effect on FITC-casein degradation (ClpC1-E288A with Sa ClpP): did not enhance FITC-casein degradation | toxicity to Mtb cells (Mtb cells; [20], [21], [22]): highly toxic to Mtb cells | cellular toxicity in Mtb cells (Mtb cells): severe cellular toxicity | effect on VapB15 degradation (ClpC1-F444S–ClpP1P2 [7]): inhibitory effect
